These are literature values, as cited in EP1928431B1, “CONTROLLED RELEASE PHARMACEUTICAL COMPOSITION CONTAINING CARVEDILOL” (Egis Gyógyszergyár Nyilvánosan Múködö Részvénytársaság, priority 2005, dated 2007).

By solubility is commonly meant the dissolved amount per volume that the medium holds.

The conditions of series [1]: orally administered and absorbed taken as 100%.
For series [2] the following is noted: in water.
For series [3] the following is noted: WO01/35958.

Each structure is given as a SMILES string. Values after ≈ are worked out from the molar mass of the structure shown. Read-outs that look alike come from different tables or passages of the source.

As to `COc1ccccc1OCCNCC(O)COc1cccc2[nH]c3ccccc3c12` (stereo not drawn) [carvedilol, 1-[9'H-carbazol-4'-yloxy]-3-[{2"-(2""-<methoxy>-phenoxy)-ethyl}-amino]-propan-2-ol], the values for the absorption in series [1] (administered in ileum), in series [1] (administered in the colon) and in series [1] (administered in the jejunum) were 28%, 7% and 56%, respectively. Also, the solubility in series [2] (pH 1) was 1000 µg/mL (≈ 2460 µM); in series [2] (pH 8), 10 µg/mL (≈ 24.6 µM). In series [3], the solubility in water was 10 µg/mL (≈ 24.6 µM).
